# From PMC6097184 (Clinical cancer research : an official journal of the …, 2017)
# How the values were obtained:
# [1] = format: in vivo; details: human, po, 400 mg, range, 20 patients with glioblastoma, single oral dose 100, 200 or 400 mg
# [2] = fraction unbound in plasma; format: in vitro ADME; details: human, patient plasma, fu,p, mean ± SD, plasma of 20 patients with glioblastoma
# [3] = physicochemical parameters from literature; details: high permeability and low solubility
# Wee1 tyrosine kinase = details: ref https://ncats.nih.gov/files/AZD1775.pdf; cited from earlier work
# [4] = tested on: DNA damage and G2-checkpoint escape; details: ref https://ncats.nih.gov/files/AZD1775.pdf; cited from earlier work
# human OAT3 = target: T1, human OAT3 (Homo sapiens, UniProt Q8TCC7); experiment: cellular uptake in HEK293 cells overexpressing OAT3
# T1 sequence (Q8TCC7 1-542): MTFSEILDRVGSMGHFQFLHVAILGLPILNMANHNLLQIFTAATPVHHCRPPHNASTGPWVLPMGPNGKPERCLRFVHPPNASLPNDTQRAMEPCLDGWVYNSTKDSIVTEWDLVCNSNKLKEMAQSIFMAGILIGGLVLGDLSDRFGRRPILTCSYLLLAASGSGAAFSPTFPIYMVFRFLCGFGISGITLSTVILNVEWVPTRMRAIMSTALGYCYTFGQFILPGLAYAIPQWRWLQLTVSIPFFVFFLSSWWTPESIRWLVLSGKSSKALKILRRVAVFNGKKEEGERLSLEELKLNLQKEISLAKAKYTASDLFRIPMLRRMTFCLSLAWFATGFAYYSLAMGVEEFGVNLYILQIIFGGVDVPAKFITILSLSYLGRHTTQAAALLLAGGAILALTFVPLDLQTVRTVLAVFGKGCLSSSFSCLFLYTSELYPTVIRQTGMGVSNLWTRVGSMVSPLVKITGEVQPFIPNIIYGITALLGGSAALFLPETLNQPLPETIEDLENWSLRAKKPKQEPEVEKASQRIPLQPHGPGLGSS
# human OATP2B1 = target: T2, human OATP2B1 (Homo sapiens, UniProt O94956); experiment: cellular uptake in HEK293 cells overexpressing OATP2B1; details: 10 μmol/L fluvastatin A
# T2 sequence (O94956 1-709): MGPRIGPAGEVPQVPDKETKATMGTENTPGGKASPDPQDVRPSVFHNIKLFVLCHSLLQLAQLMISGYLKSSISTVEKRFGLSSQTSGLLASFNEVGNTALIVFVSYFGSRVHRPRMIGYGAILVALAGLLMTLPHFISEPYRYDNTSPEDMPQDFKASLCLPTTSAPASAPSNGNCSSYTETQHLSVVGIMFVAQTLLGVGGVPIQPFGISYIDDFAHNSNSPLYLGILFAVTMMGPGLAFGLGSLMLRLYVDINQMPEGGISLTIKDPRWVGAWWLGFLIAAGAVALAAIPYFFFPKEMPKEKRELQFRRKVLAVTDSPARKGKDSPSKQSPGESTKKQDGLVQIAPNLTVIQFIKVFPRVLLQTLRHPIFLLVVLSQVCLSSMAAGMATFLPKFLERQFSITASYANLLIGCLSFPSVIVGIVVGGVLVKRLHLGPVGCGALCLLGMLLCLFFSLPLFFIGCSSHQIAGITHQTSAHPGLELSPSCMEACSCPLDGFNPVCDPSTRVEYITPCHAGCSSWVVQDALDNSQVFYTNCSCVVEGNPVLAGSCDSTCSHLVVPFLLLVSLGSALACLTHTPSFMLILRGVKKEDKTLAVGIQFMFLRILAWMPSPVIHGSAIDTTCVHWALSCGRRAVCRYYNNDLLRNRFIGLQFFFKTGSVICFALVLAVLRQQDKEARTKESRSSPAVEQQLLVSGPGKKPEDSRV
"Kp ([1]; tumor / plasma (total), total tumor-to-plasma concentration ratio (Kp))","Kp uu ([1]; tumor / plasma (unbound), unbound tumor-to-plasma concentration ratio (Kp,uu))",fraction unbound [2],Biopharmaceutics Classification System (BCS) class [3],Compound,enzyme IC50 for inhibiting Wee1 activity (Wee1 tyrosine kinase) [µg/mL],IC50 for inducing DNA damage and G2-checkpoint escape in cell-based assays [4] [µg/mL],cellular uptake in OAT3 cells in presence of inhibitor (human OAT3; 50 μmol/L probenecid),cellular uptake in HEK293 cells overexpressing OAT3 compared with vector control (human OAT3; no inhibitor),cellular uptake in OATP2B1 cells in presence of inhibitor (human OATP2B1)
3.8 to 40.4,1.3 to 24.4,0.182 ± 0.024,class II,C=CCn1c(=O)c2cnc(Nc3ccc(N4CCN(C)CC4)cc3)nc2n1-c1cccc(C(C)(C)O)n1 [AZD1775],0.0026,~0.04,–,–,–
–,–,–,–,C[C@]12CC[C@@H]3c4ccc(OS(=O)(=O)O)cc4CC[C@H]3[C@@H]1CCC2=O [estrone-3-sulfate],–,–,reduced estrone-3-sulfate uptake to a level similar to that in the vector control,significantly higher,reduced estrone-3-sulfate uptake to a level similar to that in the vector control
